From ChEMBL document CHEMBL1131554, “10-omega-phenylalkyl-9(10H)-anthracenones as inhibitors of keratinocyte growth with reduced membrane damaging properties” (Bioorg Med Chem Lett, 1998)

How the values were obtained:
[1] = Deoxyribose degradation as a measure of hydroxyl-radical generation.; type: functional
[2] = Compound was measured for lactate dehydrogenase (LDH) release in HaCaT cells after treatment with 2 uM; type: functional, Homo sapiens
[3] = In vitro for antiproliferate activity against HaCaT cells; type: functional, cell-based; settings: Homo sapiens
[4] = Partition coefficient (logP); type: physicochemical; settings: octanol/water

SMILES	Activity (uM of MDA (mM of deoxyribose)-1) [1]	LDH [2] [MU]	IC50 [3] [µM]	logP [4]
O=C1c2c(O)cccc2C(Cc2ccccc2)c2cccc(O)c21	0.35	150	> 5	
COc1ccc(CC2c3cccc(O)c3C(=O)c3c(O)cccc32)cc1	< 0.2	152	> 5	4.45
O=C1c2c(O)cccc2Cc2cccc(O)c21 [ANTHRALIN]		294	0.7	
COc1ccc(CC(=O)C2c3cccc(O)c3C(=O)c3c(O)cccc32)cc1	< 0.2	143	1.1	4.2
O=C1c2c(O)cccc2C(CCc2ccc(O)c(O)c2)c2cccc(O)c21	0.56		> 5	3.65
O=C1c2c(O)cccc2C(CCc2ccc(O)cc2)c2cccc(O)c21	0.4	136	3.8	4.1
O=C1c2c(O)cccc2C(CCc2ccccc2)c2cccc(O)c21	< 0.2		< 5	5.27
O=C1c2c(O)cccc2C(Cc2ccc([N+](=O)[O-])cc2)c2cccc(O)c21	< 0.2	142	< 5	4.16
COc1ccc(CCC2c3cccc(O)c3C(=O)c3c(O)cccc32)cc1	< 0.2	129	0.9	5.07
O=C1c2c(O)cccc2C(Cc2ccncc2)c2cccc(O)c21	1.25	179	1.8	3.47
O=C1c2c(O)cccc2C(CCc2cc(O)c(O)c(O)c2)c2cccc(O)c21	2.3	225	> 5	3.09
O=C1c2c(O)cccc2C(CCCCc2ccccc2)c2cccc(O)c21	< 0.2		< 5	5.72
COc1ccc(CCC2c3cccc(O)c3C(=O)c3c(O)cccc32)cc1OC	< 0.2		3	4.55
COc1cc(CCC2c3cccc(O)c3C(=O)c3c(O)cccc32)cc(OC)c1OC	0.97		4.1	4.37
O=C1c2c(O)cccc2C(CCCc2ccccc2)c2cccc(O)c21	< 0.2	130	> 5	5.51
